Literature values, collected in US12691049B2, “Process for producing hair treatment products by mixing organic C1-C6-alkoxysilanes and alkalizing agents in specific molar ratios” (Henkel AG & Co. KGaA, priority 2021, dated 2026).

Compound | solubility in water (25° C.) | further results
CCN(Cc1cccc(S(=O)(=O)[O-])c1)c1ccc(C(=C2C=CC(=[N+](CC)Cc3cccc(S(=O)(=O)[O-])c3)C=C2)c2ccccc2S(=O)(=O)[O-])cc1.[Na+].[Na+] [Acid Blue 9] | – | water solubility (25° C.): more than 20 wt %
O=S(=O)([O-])c1ccc(N=Nc2c(O)ccc3ccccc23)cc1.[Na+] [Acid Orange 7, sodium salt of 4-[(2-hydroxy-1-naphthyl)azo]benzene sulphonate] | more than 7 g/L | –
Nc1cc(S(=O)(=O)[O-])cc2cc(S(=O)(=O)[O-])c(N=Nc3ccccc3)c(O)c12.[Na+].[Na+] [Acid Red 33, disodium salt of 5-amino-4-hydroxy-3-(phenylazo)-naphthalene-2,7-disulfonate] | 2.5 mg/mL | –
O=C([O-])c1c(Cl)c(Cl)c(Cl)c(Cl)c1-c1c2cc(Br)c(=O)c(Br)c-2oc2c(Br)c([O-])c(Br)cc12.[Na+].[Na+] [Acid Red 92, disodium salt of 3,4,5,6-tetrachloro-2-(1,4,5,8-tetrabromo-6-hydroxy-3-oxanthene-9-yl) benzoic acid] | greater than 10 g/L | –
O=C([O-])C1=NN(c2ccc(S(=O)(=O)[O-])cc2)C(=O)C1N=Nc1ccc(S(=O)(=O)[O-])cc1.[Na+].[Na+].[Na+] (stereo not drawn) [Acid Yellow 23, trisodium salt of 4,5-dihydro-5-oxo-1-(4-sulfophenyl)-4-((4-sulfophenyl)azo)-1H-pyrazole-3-carboxylic acid] | – | solubility in water (in words) (at 25° C.): readily soluble in water
mixture of the sodium salts of mono and sis-sulfonic acids of 2-(2-quinolyl)-1H-indene-1,3(2H)-dione [Acid Yellow 3] | 20 mg/mL | –
